Source: ChEMBL document CHEMBL1154064, “Synthesis and DNA cleavage activity of 2-hydrazinyl-1,4,5,6-tetrahydropyrimidine containing hydroxy group” (2009)

What was measured:
Format in all cases: nucleic-acid assay
[1] = tested on: Nucleic Acid; assay: Binding affinity to Escherichia coli pUC19 DNA assessed as form 1 DNA level at 0.262 mM after 27.07 hrs by agarose gel electrophoresis
[2] = tested on: Nucleic Acid; assay: Binding affinity to Escherichia coli pUC19 DNA assessed as form 2 DNA level at 0.698 mM after 14.22 hrs by agarose gel electrophoresis
[3] = tested on: Nucleic Acid; assay: Binding affinity to Escherichia coli pUC19 DNA assessed as form 1 DNA level at 0.463 mM after 31.48 hrs by agarose gel electrophoresis
[4] = tested on: Nucleic Acid; assay: Binding affinity to Escherichia coli pUC19 DNA assessed as form 1 DNA level at 0.463 mM after 23.12 hrs by agarose gel electrophoresis
[5] = tested on: Nucleic Acid; assay: Binding affinity to Escherichia coli pUC19 DNA assessed as form 1 DNA level at 0.175 mM after 25.35 hrs by agarose gel electrophoresis
[6] = tested on: Nucleic Acid; assay: Binding affinity to Escherichia coli pUC19 DNA assessed as form 2 DNA level at 0.262 mM after 23.02 hrs by agarose gel electrophoresis
[7] = tested on: Nucleic Acid; assay: Binding affinity to Escherichia coli pUC19 DNA assessed as form 2 DNA level at 0.175 mM after 27.33 hrs by agarose gel electrophoresis
[8] = tested on: Nucleic Acid; assay: Binding affinity to Escherichia coli pUC19 DNA assessed as form 1 DNA level at 0.463 mM after 29.33 hrs by agarose gel electrophoresis
[9] = tested on: Nucleic Acid; assay: Binding affinity to Escherichia coli pUC19 DNA assessed as form 1 DNA level at 0.175 mM after 13.07 hrs by agarose gel electrophoresis
[10] = tested on: Nucleic Acid; assay: Binding affinity to Escherichia coli pUC19 DNA assessed as form 2 DNA level at 0.463 mM after 25.35 hrs by agarose gel electrophoresis
[11] = tested on: Nucleic Acid; assay: Binding affinity to Escherichia coli pUC19 DNA assessed as form 2 DNA level at 0.698 mM after 12.13 hrs by agarose gel electrophoresis
[12] = tested on: Nucleic Acid; assay: Binding affinity to Escherichia coli pUC19 DNA assessed as form 1 DNA level at 0.130 mM after 14 hrs by agarose gel electrophoresis
[13] = tested on: Nucleic Acid; assay: Binding affinity to Escherichia coli pUC19 DNA assessed as form 1 DNA level at 0.698 mM by agarose gel electrophoresis
[14] = tested on: Nucleic Acid; assay: Binding affinity to Escherichia coli pUC19 DNA assessed as form 2 DNA level at 0.320 mM after 13.07 hrs by agarose gel electrophoresis
[15] = tested on: Nucleic Acid; assay: Binding affinity to Escherichia coli pUC19 DNA assessed as form 1 DNA level at 0.698 mM after 12.13 hrs by agarose gel electrophoresis
[16] = tested on: Nucleic Acid; assay: Binding affinity to Escherichia coli pUC19 DNA assessed as form 1 DNA level at 0.463 mM after 13.07 hrs by agarose gel electrophoresis
[17] = tested on: Nucleic Acid; assay: Binding affinity to Escherichia coli pUC19 DNA assessed as form 1 DNA level at 0.698 mM after 6.42 hrs by agarose gel electrophoresis
[18] = tested on: Nucleic Acid; assay: Binding affinity to Escherichia coli pUC19 DNA assessed as form 1 DNA level at 0.262 mM after 25.02 hrs by agarose gel electrophoresis
[19] = tested on: Nucleic Acid; assay: Binding affinity to Escherichia coli pUC19 DNA assessed as form 1 DNA level at 0.130 mM after 11.30 hrs by agarose gel electrophoresis
[20] = tested on: Nucleic Acid; assay: Binding affinity to Escherichia coli pUC19 DNA assessed as form 1 DNA level at 0.262 mM by agarose gel electrophoresis
[21] = tested on: Nucleic Acid; assay: Binding affinity to Escherichia coli pUC19 DNA assessed as form 2 DNA level at 0.349 mM after 24.08 hrs by agarose gel electrophoresis
[22] = tested on: Nucleic Acid; assay: Binding affinity to Escherichia coli pUC19 DNA assessed as form 2 DNA level at 0.175 mM after 13.07 hrs by agarose gel electrophoresis
[23] = tested on: Nucleic Acid; assay: Binding affinity to Escherichia coli pUC19 DNA assessed as form 1 DNA level at 0.349 mM by agarose gel electrophoresis
[24] = tested on: Nucleic Acid; assay: Binding affinity to Escherichia coli pUC19 DNA assessed as form 2 DNA level at 0.262 mM after 26.15 hrs by agarose gel electrophoresis
[25] = tested on: Nucleic Acid; assay: Binding affinity to Escherichia coli pUC19 DNA assessed as form 1 DNA level at 0.175 mM after 23.12 hrs by agarose gel electrophoresis

- Activity [1]: 84.7%
- Activity [2]: 28.4%
- Activity [3]: 51.1%
- Activity [4]: 62%
- Activity [5]: 78.9%
- Activity [6]: 9.9%
- Activity [7]: 24%
- Activity [8]: 57.8%
- Activity [9]: 90.8%
- Activity [10]: 39.8%
- Activity [11]: 23%
- Activity [12]: 75.5%
- Activity [13]: 98.1%
- Activity [14]: 87.8%
- Activity [15]: 77%
- Activity [16]: 77.5%
- Activity [17]: 86.6%
- Activity [18]: 88.1%
- Activity [19]: 78.2%
- Activity [20]: 97.2%
- Activity [21]: 28.1%
- Activity [22]: 9.19%
- Activity [23]: 97.5%
- Activity [24]: 13.7%
- Activity [25]: 80.8%
SMILES: Cl.Cl.NNC1=NCC(O)CN1 (stereo not given)
